Assay results as given in article PMC10689823, “Discovery of a Drug-like, Natural Product-Inspired DCAF11 Ligand Chemotype” (Nature Communications, 2023).
Several values for one entry are separate records, joined by “and”; a condition that tells them apart may be missing. Equal entries are not always repeated. Each block holds one compound with its values, some of them ahead of it.

Key:
Format in all cases: cell-based
Jurkat cells = experiment: Cell viability assay (CellTiter-Glo) in Jurkat cells; conditions: for GI50: Homo sapiens; for GI50 / Relative cell viability (%): Jurkat cells, 72 h; for Relative cell viability (%): Fig. 4k; for Cell viability (%) relative to DMSO: individual replicates, Supplementary Fig. 7g
Method in brief: (§1)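 Jurkat and Hep G2 cells were exposed to compounds for 72 h, with an untreated plate counted at time zero. Viability was read as CellTiter-Glo luminescence after 10 min reagent incubation at room temperature.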

[1] = as above; conditions: human, Jurkat cells; for viability at 72 h, 10 nmol/L: concentration 10 nmol/L; for viability at 72 h, 30 nmol/L: concentration 30 nmol/L; for viability at 72 h, 100 nmol/L: concentration 100 nmol/L; for viability at 72 h, 1000 nmol/L: concentration 1000 nmol/L; for viability at 72 h, 3000 nmol/L: concentration 3000 nmol/L; for viability at 72 h, 0.01 µM: 10 nM; for viability at 72 h, 0.03 µM: 30 nM; for viability at 72 h, 0.1 µM: 100 nM; for viability at 72 h, 0.3 µM: 300 nM; for viability at 72 h, 1 µM: 1000 nM
Method in brief: as §1

BRD2 [2] = target: T1, BRD2 (Homo sapiens, UniProt P25440); experiment: BRD2 levels by Western blot in Jurkat cells; set-up: endogenous in cells; host or cells: Jurkat; Hep G2; MDA-MB-231; KBM7 (WT, DCAF11 KO, DDB1 KO); Dmax: dose or concentration left out as unconfirmed; conditions: for degradation of BRD2: 3 µM, 6 h treatment
Method: (§2) Cells were washed with PBS and lysed in lysis buffer (50 mM Tris-HCl, pH 7.4, 150 mM NaCl, 1% Triton X-100, 1% sodium deoxycholate, 0.1% SDS) with complete protease inhibitor cocktail (Roche, 11836170001) for 30 min on ice. For Ramos cells, cell pellets were lysed in lysis buffer (50 mM Tris-HCl, pH 8, 150 mM NaCl, 1% NP-40, 0.5% sodium deoxycholate) with complete protease inhibitor cocktail. After centrifugation at 16,000 x g, the supernatant was transferred into a new tube and the protein concentration was determined by DC protein assay (BIO-RAD, 5000116). Proteins were separated by SDS-PAGE and transferred to a PVDF membrane (Thermo scientific, 0.45 μm, 88518). For PDEδ, BRD2, GAPDH, BRD4, Vinculin and BTK, the membranes were blocked with Intercept® Blocking Buffer (LI-COR Biosciences, 927-70001) at room temperature for 1 h. The primary antibodies for these proteins were diluted with Intercept® Blocking Buffer (1:500 for PDEδ, 1:3000 for Vinculin, and 1:1000 for other proteins) and incubated with the membranes overnight at 4 °C. Membranes were washed with PBS + 0.1% Tween 20 (PBS-T) five times and incubated with secondary antibodies conjugated to IRDye® Infrared Fluorescent Dyes (1:5000, LI-COR Biosciences) at room temperature for 1 h with protection from light. After washing the membrane, signals were visualized using the ChemiDoc MP Imaging System (BIO-RAD Laboratories). For detection of LC3B, BRD3, BLK, DCAF11, DDB1 RBX1, FIP200, V5- and FLAG-Tag the membranes were blocked with 5% milk in PBS-T at room temperature for 1 h. The primary antibodies for these proteins were diluted in 5% milk in PBS-T buffer (1:200 for BRD3, 1:1000 for other proteins) and incubated with the membranes overnight at 4 °C. Membranes were washed with PBS-T five times and incubated with HRP secondary antibodies (1:1500) at room temperature for 1 h. After washing the membrane, protein detection was performed using Western blotting detection reagent (Thermo Scientific, 34095) and the ChemiDoc MP Imaging System (BIO-RAD). Relative band intensities were quantified using Image Lab (BIO-RAD).

BRD2 [3] = experiment: In-Cell Western for BRD2 levels in Hep G2 cells
Method in brief: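 Hep G2 cells were treated with compound for the indicated time and concentration. After fixation and permeabilisation, BRD2 was immunostained and read by near-infrared imaging. BRD2 signal was normalised to vinculin.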

BRD3 = target: T2, BRD3 (Homo sapiens, UniProt Q15059); experiment: BRD3 levels by Western blot in Jurkat cells; conditions: for degradation of BRD3: 3 µM, 6 h treatment
T2 construct: endogenous in cells; host or cells: Jurkat
Method: as §2

caspase-3/7 activity = experiment: Caspase-3/7 Activity Assay in Jurkat cells; conditions: 18 h
Method: Jurkat cells (3 × 10^3) were seeded in 96-well plates in 25 μl culture medium. Cells were treated with compounds dissolved in 25 μl medium at the indicated concentration for 18 h. After adding 50 μl of Caspase-Glo® 3/7 Reagent (Promega, G8091) to each well for 30 min at room temperature, the luminescence was measured on a Spark® Multimode Microplate Reader (Tecan). The data was analyzed by the GraphPad Prism 9.0.

BRD2 [4] = target: T1, BRD2; experiment: BRD2 levels by Western blot in KBM7 cells (WT, DCAF11 knockout, DDB1 knockout); set-up: endogenous in cells; host or cells: KBM7 (WT, DCAF11 KO, DDB1 KO); conditions: for BRD2 degradation after knockout of DDB1 in KBM7 cells: 0.5 µg/mL Dox for 3 days, then compound 4 h; for BRD2 degradation in DCAF11 knockout (KO1 and KO2) KBM7 cells: 9 at 3 μM, 10 at 10 μM, 11 at 10 μM, 6 h; for BRD2 degradation in KBM7 cells: 4 h
Method: as §2
DCAF11- or FIP200 (RB1CC1)-targeting sgRNAs were lentivirally packaged using PEI transfection of Lenti-X cells. The viral supernatant was harvested after 72 h, cleared of cellular debris by filtration through a 0.45-µm PES filter and stored in aliquots at −80 °C. The appropriate amount of viral supernatant was transduced into KBM7 cells (1 × 10^6 cells/mL) via spinfection (2000 rpm, 1 h, 37 °C) with polybrene (8 µg/mL). Two days post transduction, the cells were selected with puromycin (1 µg/mL) for a total of 5 days, after which the knockout pools were validated via western blotting.

[5] = individual replicates, Supplementary Fig. 7g, read-out: Cell viability (%) relative to DMSO
[6] = 72 h, Fig. 4k, read-out: Relative cell viability (%)

T2 sequence (Q15059 whole entry): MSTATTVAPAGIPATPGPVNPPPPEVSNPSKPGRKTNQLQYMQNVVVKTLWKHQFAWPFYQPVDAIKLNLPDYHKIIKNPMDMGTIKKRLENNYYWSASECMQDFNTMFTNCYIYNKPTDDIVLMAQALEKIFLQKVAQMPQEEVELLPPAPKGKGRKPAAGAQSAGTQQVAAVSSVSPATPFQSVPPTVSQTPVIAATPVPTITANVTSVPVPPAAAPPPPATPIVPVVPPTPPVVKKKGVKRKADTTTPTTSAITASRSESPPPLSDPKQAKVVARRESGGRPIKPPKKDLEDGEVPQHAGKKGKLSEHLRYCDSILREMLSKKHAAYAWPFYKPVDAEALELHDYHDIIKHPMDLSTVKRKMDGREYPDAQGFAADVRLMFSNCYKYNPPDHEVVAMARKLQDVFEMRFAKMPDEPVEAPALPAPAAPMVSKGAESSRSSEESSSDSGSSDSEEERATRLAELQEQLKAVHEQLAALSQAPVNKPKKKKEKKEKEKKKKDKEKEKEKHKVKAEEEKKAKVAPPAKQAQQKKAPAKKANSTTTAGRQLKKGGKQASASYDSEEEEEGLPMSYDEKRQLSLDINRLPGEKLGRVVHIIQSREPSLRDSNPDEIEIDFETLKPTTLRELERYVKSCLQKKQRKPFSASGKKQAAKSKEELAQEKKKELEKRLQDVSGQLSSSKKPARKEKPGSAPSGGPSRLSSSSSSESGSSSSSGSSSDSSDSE
T1 sequence (P25440 whole entry): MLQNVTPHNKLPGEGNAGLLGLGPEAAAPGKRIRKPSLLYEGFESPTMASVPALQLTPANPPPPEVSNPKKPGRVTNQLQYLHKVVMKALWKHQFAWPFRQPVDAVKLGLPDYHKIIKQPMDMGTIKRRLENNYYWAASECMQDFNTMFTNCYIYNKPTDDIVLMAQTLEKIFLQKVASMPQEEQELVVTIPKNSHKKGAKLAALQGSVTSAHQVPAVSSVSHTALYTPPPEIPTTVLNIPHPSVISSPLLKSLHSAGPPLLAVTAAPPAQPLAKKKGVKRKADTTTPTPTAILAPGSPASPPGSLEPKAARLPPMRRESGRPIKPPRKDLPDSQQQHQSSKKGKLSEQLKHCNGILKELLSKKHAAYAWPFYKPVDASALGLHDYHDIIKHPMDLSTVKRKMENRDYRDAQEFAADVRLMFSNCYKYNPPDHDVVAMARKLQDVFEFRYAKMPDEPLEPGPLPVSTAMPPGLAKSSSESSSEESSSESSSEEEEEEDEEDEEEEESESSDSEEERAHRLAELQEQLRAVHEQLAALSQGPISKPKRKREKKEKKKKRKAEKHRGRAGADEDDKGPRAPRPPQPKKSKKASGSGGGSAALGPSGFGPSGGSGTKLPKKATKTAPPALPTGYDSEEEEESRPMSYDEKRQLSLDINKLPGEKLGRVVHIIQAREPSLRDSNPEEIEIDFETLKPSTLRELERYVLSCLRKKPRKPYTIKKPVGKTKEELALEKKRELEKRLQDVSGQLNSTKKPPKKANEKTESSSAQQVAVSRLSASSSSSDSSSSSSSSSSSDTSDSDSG

SMILES: O=C1Nc2ccc(Br)cc2C1=Cc1cc(Br)c(O)c(Br)c1 [Compound 2]
GI50 (Jurkat cells): > 30 µM
Relative cell viability (%) (Jurkat cells; 10 nM, 0.01 µM): 109.397% and 95.8659%
Relative cell viability (%) (Jurkat cells; 30 nM, 0.03 µM): 109.179% and 98.227%
Relative cell viability (%) (Jurkat cells; 100 nM, 0.1 µM): 109.452% and 110.948%
Relative cell viability (%) (Jurkat cells; 300 nM, 0.3 µM): 108.619% and 101.195%
Relative cell viability (%) (Jurkat cells; 1000 nM, 1 µM): 100.635% and 106.748%
Relative cell viability (%) (Jurkat cells; 3000 nM, 3 µM): 102.832% and 100.062%
Relative cell viability (%) (Jurkat cells; 10000 nM, 10 µM): 99.6522% and 88.024%
Relative cell viability (%) (Jurkat cells; 30000 nM, 30 µM): 74.0357% and 70.3951%
Cell viability (%) relative to DMSO (Jurkat cells; concentration 10 nmol/L): 103.951% and 104.068%
Cell viability (%) relative to DMSO (Jurkat cells; concentration 30 nmol/L): 103.682% and 105.344%
Cell viability (%) relative to DMSO (Jurkat cells; concentration 100 nmol/L): 100.341% and 100.604%
Cell viability (%) relative to DMSO (Jurkat cells; concentration 300 nmol/L): 97.5611% and 103.704%
Cell viability (%) relative to DMSO (Jurkat cells; concentration 1000 nmol/L): 98.2177% and 99.0254%
Cell viability (%) relative to DMSO (Jurkat cells; concentration 3000 nmol/L): 82.942% and 99.8195%
Cell viability (%) relative to DMSO (Jurkat cells; concentration 10000 nmol/L): 67.1883% and 83.6742% and 92.9267%
Cell viability (%) relative to DMSO (Jurkat cells; concentration 30000 nmol/L): 49.2545% and 60.9936%
viability at 72 h, 10 nmol/L [1, 5]: 95.2%
viability at 72 h, 30 nmol/L [1, 5]: 91.8%
viability at 72 h, 100 nmol/L [1, 5]: 87.9%
viability at 72 h, 300 nmol/L ([1]; concentration 300 nmol/L, individual replicates, Supplementary Fig. 7g, read-out: Cell viability (%) relative to DMSO): 89.9%
viability at 72 h, 1000 nmol/L [1, 5]: 90.3%
viability at 72 h, 3000 nmol/L [1, 5]: 86.4%
viability at 72 h, 30000 nmol/L ([1]; concentration 30000 nmol/L, individual replicates, Supplementary Fig. 7g, read-out: Cell viability (%) relative to DMSO): 44.6%
viability at 72 h, 0.01 µM [1, 6]: 98.6%
viability at 72 h, 0.03 µM [1, 6]: 96.8%
viability at 72 h, 0.1 µM [1, 6]: 93.4%
viability at 72 h, 0.3 µM [1, 6]: 95.1%
viability at 72 h, 1 µM [1, 6]: 96.9%
viability at 72 h, 3 µM ([1]; 72 h, 3000 nM, Fig. 4k, read-out: Relative cell viability (%)): 93.5%
viability at 72 h, 10 µM ([1]; 72 h, 10000 nM, Fig. 4k, read-out: Relative cell viability (%)): 80.3%
viability at 72 h, 30 µM ([1]; 72 h, 30000 nM, Fig. 4k, read-out: Relative cell viability (%)): 59.8%
BRD2 protein levels, ligands alone or in combination (BRD2 [2]; 3 μM, 4 h): did not reduce BRD2 protein levels
BRD2/Vinculin intensity (relative to control group) (BRD2 [3]; Hep G2 cells, pretreated with compound at 30 μM 1 h, then 9 (10 μM, 4 h), single repeats, Fig. 4h): 45.5673 and 52.7494 and 40.9253 and 42.2632 and 42.726
Value (Mean ± SD): Relative BRD2 levels remaining in Hep G2 cells after treatment with compounds followed by treatment with 9, with DMSO control for normalization (BRD2 [3]; qualitative ICW assay, pretreated at 30 μM 1 h, then 9 (10 μM, 4 h), Supplementary Table 1): 44.85 ± 4.23

degradation of BRD3 (BRD3): potent degradation activity
hook effect for BRD3 (BRD3; 6 h, at 10 µM): strong hook effect
GI50 (Jurkat cells): 0.09 ± 0.02 µM
degradation of BRD2 (BRD2 [2]): potent degradation activity
BRD2 levels after washout (BRD2 [2]; 10 μM, 5 h prior to washout): did not recover
DC50 (BRD2 [2]; 6 h, read-out: half-maximal degradation concentration (DC50) of BRD2): 0.255 µM
Dmax (BRD2 [2]; 6 h, read-out: maximum level of degradation (Dmax) of BRD2): 84%
hook effect for BRD2 (BRD2 [2]; 6 h, up to 50 µM concentration): almost no hook effect
BRD2 degradation after knockout of DDB1 in KBM7 cells (BRD2 [4]): did not lead to BRD2 degradation anymore
BRD2 degradation in DCAF11 knockout (KO1 and KO2) KBM7 cells (BRD2 [4]): abolished
BRD2 degradation in KBM7 cells (BRD2 [4]): displayed BRD2-degrading activity
SMILES: Cc1sc2c(c1C)C(c1ccc(Cl)cc1)=N[C@@H](CC(=O)NCCOCCOCCOCCOCCNC(=O)COc1c(Br)cc(/C=C3\C(=O)Nc4ccc(Br)cc43)cc1Br)c1nnc(C)n1-2 [Compound 9]
viability at 72 h, 10 nmol/L [1, 5]: 89.8%
viability at 72 h, 30 nmol/L [1, 5]: 92.8%
viability at 72 h, 100 nmol/L [1, 5]: 101%
viability at 72 h, 1000 nmol/L [1, 5]: 13%
viability at 72 h, 3000 nmol/L [1, 5]: 1.47%
viability at 72 h, 0.01 µM [1, 6]: 100%
viability at 72 h, 0.03 µM [1, 6]: 92%
viability at 72 h, 0.1 µM [1, 6]: 64.6%
BRD2 depletion by In-Cell Western (BRD2 [3]; Hep G2 cells, 4 h): dose-dependent depletion of BRD2
caspase-3/7 activation compared with JQ1 or non-active degraders 16 and 17 (caspase-3/7 activity): substantially higher

degradation of BRD3 (BRD3): potent degradation activity
GI50 (Jurkat cells): 0.19 ± 0.03 µM
degradation of BRD2 (BRD2 [2]): potent degradation activity
remaining activity at 3 µM (BRD2 [2]; Jurkat, 6 h, 3 μM, 6 h, Fig. 4j, read-out: BRD2/Vinculin intensity (relative to DMSO control group)): 30.7%
BRD2 degradation after knockout of DDB1 in KBM7 cells (BRD2 [4]): did not lead to BRD2 degradation anymore
BRD2 degradation in DCAF11 knockout (KO1 and KO2) KBM7 cells (BRD2 [4]): abolished
BRD2 degradation in KBM7 cells (BRD2 [4]): displayed BRD2-degrading activity
SMILES: Cc1sc2c(c1C)C(c1ccc(Cl)cc1)=NC(CC(=O)NCCOCCOCCOCCOc1c(Br)cc(C=C3C(=O)Nc4ccc(Br)cc43)cc1Br)c1nnc(C)n1-2 (stereo not drawn) [Compound 10]
viability at 72 h, 10 nmol/L [1, 5]: 89.7%
viability at 72 h, 30 nmol/L [1, 5]: 90.1%
viability at 72 h, 0.1 µM [1, 6]: 70.8%
viability at 72 h, 0.3 µM [1, 6]: 33.9%
viability at 72 h, 1 µM [1, 6]: 1.17%
caspase-3/7 activation compared with JQ1 or non-active degraders 16 and 17 (caspase-3/7 activity): substantially higher
